Active and inactive are the calls of the source. The rule behind the calls is not given here.
Tests used:
Homo sapiens = species: Homo sapiens; experiment: (§1) Cytotoxicity against human thyroid carcinoma cells assessed as mortality; format: functional
[1] = as §1; format: functional

| SMILES | Activity (Homo sapiens) | Activity [1] |
| --- | --- | --- |
| CC1(C)CCC[C@]2(C)[C@H]3C[C@@H](O)[C@]4(C)[C@@H]5C(=CC[C@H]4[C@]3(C)CC[C@@H]12)CO[C@H]5O | inactive |  |
| CC1(C)CCC[C@]2(C)[C@H]3CC(=O)[C@]4(C)[C@@H]5C(=CC[C@H]4[C@]3(C)CC[C@@H]12)CO[C@H]5O |  | 25% |
| CC(=O)O[C@@H]1OC=C2[C@@H](OC(C)=O)C[C@H]3[C@]4(C)CC[C@H]5C(C)(C)CCC[C@]5(C)[C@H]4C[C@@H](O)[C@]3(C)[C@H]21 [HETERONEMIN] |  | 30% |

Reference: ChEMBL document CHEMBL1144122, “New scalaranes from the nudibranch Glossodoris atromarginata and its sponge prey” (1999)
